Values quoted from earlier work as cited in article PMC8604667 (International Journal of Pharmaceutics: X, 2021).

Assays:
P-glycoprotein = settings: ref Takemoto et al., 2006; Negi et al., 2013
[1] = ref Venditto and Simanek, 2010

With CC[C@@]1(O)C(=O)OCc2c1cc1n(c2=O)Cc2cc3ccccc3nc2-1 [camptothecin, Camptothecin] as the compound, how does the P-glycoprotein substrate (P-glycoprotein) read?
The P-glycoprotein substrate was “P-glycoprotein substrate”.

What about the “pH at which lactone and carboxylate forms co-exist at 50%” value [1] of the same compound?
The value was 6.65.
